{"source": "paper PMC12281424", "about": "“A Rac-specific competitive inhibitor of guanine nucleotide binding reduces metastasis in triple-negative breast cancer” (Cell Reports Medicine, 2025)", "key": {"[1]": {"tested_on": "AKT phosphorylation in MDA-MB-468 Luc cells", "assay": "Immunoblotting", "type": "cell-based", "details": "10^-5 M, 1 h", "method": "(§1) Figure 5 A41 decreases growth and invasiveness of TNBC cells in vitro (A) Representative images of RAC-GTP levels (red) in MDA-MB-468 Luc cells in the absence (CTL) and presence of EHT1864, NSC23766, or A41 (1 h at 10 μM) (left). Luciferase (Luc, green) was used to detect the cells. RAC-GTP mean fluorescence intensity was quantified inside the cell area (right) (n = 31–37 cells from 3 independent experiments; ∗p < 0.05, ∗∗∗p < 0.001) (scale bars: 10 μm). […] (C) Quantification of colony number of indicated cancer cell lines in the presence of A41 (10 μM) expressed as the percentage of control in the absence of A41. Results shown are representative of N > 3 independent experiments. (D) Immunoblot analysis and corresponding quantification of AKT and P44/42 expression and phosphorylation (pAKT, p44/42) in MDA-MB-468 Luc cells in the absence (−) and presence of NSC23766 or A41 (1 h at 10^−5 M). […] (E) 3D invasion assay of MDA-MB-468 Luc and cancer-associated fibroblasts (CAFs) and corresponding quantification (scale bars: 200 μm). […]\n(§2) After indicated treatments, MDA-MB-468Luc cells were incubated on ice with lysis buffer supplemented with proteases and phosphatases inhibitor cocktails (Sigma Aldrich, Saint Quentin Fallavier, France) and sodium orthovanadate. […] Protein band intensities were quantified using ImageJ Software (NIH software, Bethesda, Md)."}, "[2]": {"tested_on": "p44/42 phosphorylation in MDA-MB-468 Luc cells", "assay": "Immunoblotting", "type": "cell-based", "details": "10^-5 M, 1 h", "method": "as §1, §2"}, "[3]": {"molecular_target": "Protein Tyrosine Kinase, LCK (Homo sapiens, UniProt P06239)", "sequence (P06239 whole entry)": "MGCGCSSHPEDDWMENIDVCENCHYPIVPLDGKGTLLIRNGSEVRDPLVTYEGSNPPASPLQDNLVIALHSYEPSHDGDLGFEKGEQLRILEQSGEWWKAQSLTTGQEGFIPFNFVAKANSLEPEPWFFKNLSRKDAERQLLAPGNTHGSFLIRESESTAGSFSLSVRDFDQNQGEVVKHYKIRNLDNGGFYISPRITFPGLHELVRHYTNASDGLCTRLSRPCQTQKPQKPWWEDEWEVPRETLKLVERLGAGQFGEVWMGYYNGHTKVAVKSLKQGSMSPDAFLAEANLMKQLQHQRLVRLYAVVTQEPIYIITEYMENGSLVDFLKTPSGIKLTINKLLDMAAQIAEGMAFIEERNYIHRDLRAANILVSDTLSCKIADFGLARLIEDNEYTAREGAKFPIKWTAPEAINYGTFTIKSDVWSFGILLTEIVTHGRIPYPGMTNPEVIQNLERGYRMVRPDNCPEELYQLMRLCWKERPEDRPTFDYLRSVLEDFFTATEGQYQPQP", "assay": "Safety screen", "type": "biochemical", "experimental": "(§3) The kinase profiler was performed by the company Eurofins (Discovery, Panlab and Cerep)."}, "[4]": {"molecular_target": "Cholecystokinin CCK1 (CCKA) (Homo sapiens, UniProt P32238)", "sequence (P32238 whole entry)": "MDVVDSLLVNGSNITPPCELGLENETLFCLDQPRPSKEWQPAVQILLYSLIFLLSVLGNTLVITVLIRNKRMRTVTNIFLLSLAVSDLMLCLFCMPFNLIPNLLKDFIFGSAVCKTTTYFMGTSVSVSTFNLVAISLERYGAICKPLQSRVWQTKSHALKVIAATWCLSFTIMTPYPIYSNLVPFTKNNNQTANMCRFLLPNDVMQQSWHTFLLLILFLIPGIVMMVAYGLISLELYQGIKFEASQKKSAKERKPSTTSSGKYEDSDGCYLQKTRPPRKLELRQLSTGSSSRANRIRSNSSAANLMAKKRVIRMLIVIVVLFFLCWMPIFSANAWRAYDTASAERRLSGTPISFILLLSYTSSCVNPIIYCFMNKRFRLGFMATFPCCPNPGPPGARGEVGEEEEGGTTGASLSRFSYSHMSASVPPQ", "assay": "Safety screen", "type": "binding", "experimental": "(§4) Blood cell counts, kinase profiler, safety screen, bacterial cytotoxicity, Ames, micronucleus assays were performed by the company Eurofins (France)."}, "[5]": {"tested_on": "GABAA, Ro-15-1788, Hippocampus", "assay": "Safety screen", "type": "binding, rat", "experimental": "as §4"}, "[6]": {"molecular_target": "BRK(h) (Homo sapiens, UniProt Q13882)", "assay": "Kinase Profiler", "type": "biochemical", "experimental": "(§5) Blood cell counts, kinase profiler, safety screen, bacterial cytotoxicity, Ames, micronucleus assays were performed by the company Eurofins (France). The kinase profiler was performed by the company Eurofins (Discovery, Panlab and Cerep)."}, "[7]": {"molecular_target": "CDK14/cyclinY(h) (Homo sapiens, UniProt O94921)", "assay": "Kinase Profiler", "type": "biochemical", "experimental": "as §5"}, "[8]": {"molecular_target": "ErbB2(h) (Homo sapiens, UniProt P04626)", "sequence (P04626 23-1255)": "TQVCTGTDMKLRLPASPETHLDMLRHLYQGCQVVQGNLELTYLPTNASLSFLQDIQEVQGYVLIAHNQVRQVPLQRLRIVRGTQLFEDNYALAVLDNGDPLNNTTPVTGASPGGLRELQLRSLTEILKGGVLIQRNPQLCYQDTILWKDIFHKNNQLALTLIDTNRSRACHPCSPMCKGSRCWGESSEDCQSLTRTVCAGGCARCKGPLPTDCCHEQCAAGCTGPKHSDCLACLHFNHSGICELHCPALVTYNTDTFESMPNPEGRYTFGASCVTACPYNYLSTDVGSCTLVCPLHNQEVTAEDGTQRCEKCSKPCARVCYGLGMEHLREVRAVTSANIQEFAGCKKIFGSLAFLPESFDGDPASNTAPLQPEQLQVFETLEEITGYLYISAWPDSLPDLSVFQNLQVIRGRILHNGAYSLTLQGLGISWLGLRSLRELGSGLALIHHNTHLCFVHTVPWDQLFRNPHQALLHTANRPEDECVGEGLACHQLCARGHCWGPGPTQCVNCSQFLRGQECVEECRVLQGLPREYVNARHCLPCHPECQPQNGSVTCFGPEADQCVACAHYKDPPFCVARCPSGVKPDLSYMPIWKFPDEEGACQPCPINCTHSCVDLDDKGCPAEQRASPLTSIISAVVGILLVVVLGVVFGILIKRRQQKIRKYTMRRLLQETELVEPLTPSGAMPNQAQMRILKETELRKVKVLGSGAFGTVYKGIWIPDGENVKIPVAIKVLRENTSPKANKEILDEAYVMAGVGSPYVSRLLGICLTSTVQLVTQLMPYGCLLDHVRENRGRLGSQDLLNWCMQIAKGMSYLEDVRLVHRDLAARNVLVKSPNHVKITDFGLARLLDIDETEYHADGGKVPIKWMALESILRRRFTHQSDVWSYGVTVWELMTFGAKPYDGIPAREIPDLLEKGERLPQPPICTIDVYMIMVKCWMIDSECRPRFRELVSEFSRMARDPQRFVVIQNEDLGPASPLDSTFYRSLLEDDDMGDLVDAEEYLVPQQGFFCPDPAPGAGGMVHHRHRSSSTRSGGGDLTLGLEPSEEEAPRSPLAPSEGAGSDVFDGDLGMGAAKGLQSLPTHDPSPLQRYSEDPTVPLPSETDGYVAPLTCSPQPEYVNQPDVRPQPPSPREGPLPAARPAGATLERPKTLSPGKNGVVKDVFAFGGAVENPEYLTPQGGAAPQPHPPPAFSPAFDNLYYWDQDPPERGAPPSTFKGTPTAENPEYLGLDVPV", "assay": "Kinase Profiler", "type": "biochemical", "experimental": "as §3"}, "[9]": {"molecular_target": "FGFR1(h) (Homo sapiens, UniProt P11362)", "sequence (P11362 22-822)": "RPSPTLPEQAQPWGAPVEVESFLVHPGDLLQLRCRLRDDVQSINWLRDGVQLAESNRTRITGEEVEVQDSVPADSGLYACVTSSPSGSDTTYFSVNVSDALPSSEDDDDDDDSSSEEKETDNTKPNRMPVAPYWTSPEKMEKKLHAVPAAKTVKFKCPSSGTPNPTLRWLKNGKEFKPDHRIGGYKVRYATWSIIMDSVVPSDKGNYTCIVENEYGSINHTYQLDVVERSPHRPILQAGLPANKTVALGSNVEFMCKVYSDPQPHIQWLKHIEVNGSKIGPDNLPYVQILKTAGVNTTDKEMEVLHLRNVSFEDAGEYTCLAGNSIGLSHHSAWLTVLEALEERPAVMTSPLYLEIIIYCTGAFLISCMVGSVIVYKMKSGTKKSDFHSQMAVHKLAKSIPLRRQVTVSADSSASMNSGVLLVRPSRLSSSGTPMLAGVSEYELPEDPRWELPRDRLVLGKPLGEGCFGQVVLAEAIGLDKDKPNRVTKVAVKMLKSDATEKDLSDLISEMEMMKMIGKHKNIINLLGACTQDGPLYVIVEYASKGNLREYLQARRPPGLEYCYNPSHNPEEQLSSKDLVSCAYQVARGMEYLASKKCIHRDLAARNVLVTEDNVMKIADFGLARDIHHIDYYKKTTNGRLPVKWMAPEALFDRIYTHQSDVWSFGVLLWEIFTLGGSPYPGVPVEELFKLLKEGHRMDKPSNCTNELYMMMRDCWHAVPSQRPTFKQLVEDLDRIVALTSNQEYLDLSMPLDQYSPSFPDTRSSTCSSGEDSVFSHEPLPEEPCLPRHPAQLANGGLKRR", "assay": "Kinase Profiler", "type": "biochemical", "experimental": "as §3"}, "[10]": {"molecular_target": "FGFR1(V561M)(h) (Homo sapiens, UniProt P11362, V561M)", "assay": "Kinase Profiler", "type": "biochemical", "experimental": "as §3"}, "[11]": {"molecular_target": "HIPK4(h) (Homo sapiens, UniProt Q8NE63)", "assay": "Kinase Profiler", "type": "biochemical", "experimental": "as §3"}, "[12]": {"molecular_target": "IGF-1R(h), activated (Homo sapiens, UniProt P08069)", "sequence (P08069 31-1367)": "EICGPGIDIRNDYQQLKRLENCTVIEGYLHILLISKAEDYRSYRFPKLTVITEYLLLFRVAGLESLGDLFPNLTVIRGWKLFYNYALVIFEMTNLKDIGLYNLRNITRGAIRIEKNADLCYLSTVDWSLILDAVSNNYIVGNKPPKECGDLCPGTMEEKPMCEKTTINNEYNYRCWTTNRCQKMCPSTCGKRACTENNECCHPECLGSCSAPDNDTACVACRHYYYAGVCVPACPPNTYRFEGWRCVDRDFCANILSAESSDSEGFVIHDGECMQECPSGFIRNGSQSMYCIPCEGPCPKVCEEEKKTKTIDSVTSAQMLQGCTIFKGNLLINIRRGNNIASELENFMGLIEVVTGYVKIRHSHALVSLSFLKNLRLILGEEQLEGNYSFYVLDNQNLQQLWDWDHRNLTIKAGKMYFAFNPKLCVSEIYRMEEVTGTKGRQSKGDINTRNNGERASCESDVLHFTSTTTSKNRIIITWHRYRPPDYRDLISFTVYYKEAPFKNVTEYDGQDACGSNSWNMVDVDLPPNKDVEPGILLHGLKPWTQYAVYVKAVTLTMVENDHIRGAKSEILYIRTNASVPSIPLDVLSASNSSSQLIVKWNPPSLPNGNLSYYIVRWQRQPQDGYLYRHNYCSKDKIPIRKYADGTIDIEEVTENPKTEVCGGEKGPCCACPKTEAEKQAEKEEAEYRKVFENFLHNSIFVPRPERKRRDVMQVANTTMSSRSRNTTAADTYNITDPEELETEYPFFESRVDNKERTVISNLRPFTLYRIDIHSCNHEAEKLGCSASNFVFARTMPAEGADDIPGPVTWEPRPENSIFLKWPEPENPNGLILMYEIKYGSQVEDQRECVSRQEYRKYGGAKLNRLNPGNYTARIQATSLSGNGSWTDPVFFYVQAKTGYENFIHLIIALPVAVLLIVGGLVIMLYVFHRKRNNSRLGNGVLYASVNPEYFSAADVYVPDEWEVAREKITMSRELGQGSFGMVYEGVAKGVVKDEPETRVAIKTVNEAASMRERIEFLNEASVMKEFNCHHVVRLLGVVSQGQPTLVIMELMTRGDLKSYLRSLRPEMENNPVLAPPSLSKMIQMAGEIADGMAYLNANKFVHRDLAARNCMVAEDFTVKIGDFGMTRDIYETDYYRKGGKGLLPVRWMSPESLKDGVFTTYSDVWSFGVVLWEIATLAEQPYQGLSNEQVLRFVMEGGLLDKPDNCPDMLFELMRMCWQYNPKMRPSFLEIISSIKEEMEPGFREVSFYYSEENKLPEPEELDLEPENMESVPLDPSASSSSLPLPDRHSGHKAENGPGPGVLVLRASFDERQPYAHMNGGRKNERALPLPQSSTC", "assay": "Kinase Profiler", "type": "biochemical", "experimental": "as §5"}, "[13]": {"molecular_target": "MLK4(h) (Homo sapiens, UniProt Q5TCX8)", "assay": "Kinase Profiler", "type": "biochemical", "experimental": "as §5"}, "[14]": {"molecular_target": "PKR(h) (Homo sapiens, UniProt P19525)", "assay": "Kinase Profiler", "type": "biochemical", "experimental": "as §3"}, "[15]": {"molecular_target": "SAPK2a(h) (Homo sapiens, UniProt Q16539)", "assay": "Kinase Profiler", "type": "biochemical", "experimental": "as §3"}, "[16]": {"molecular_target": "STK32B(h) (Homo sapiens, UniProt Q9NY57)", "assay": "Kinase Profiler", "type": "biochemical", "experimental": "as §3"}, "[17]": {"molecular_target": "TAO2(h) (Homo sapiens, UniProt Q9UL54)", "assay": "Kinase Profiler", "type": "biochemical", "experimental": "as §5"}, "[18]": {"molecular_target": "TrkB(h) (Homo sapiens, UniProt Q16620)", "sequence (Q16620 32-822)": "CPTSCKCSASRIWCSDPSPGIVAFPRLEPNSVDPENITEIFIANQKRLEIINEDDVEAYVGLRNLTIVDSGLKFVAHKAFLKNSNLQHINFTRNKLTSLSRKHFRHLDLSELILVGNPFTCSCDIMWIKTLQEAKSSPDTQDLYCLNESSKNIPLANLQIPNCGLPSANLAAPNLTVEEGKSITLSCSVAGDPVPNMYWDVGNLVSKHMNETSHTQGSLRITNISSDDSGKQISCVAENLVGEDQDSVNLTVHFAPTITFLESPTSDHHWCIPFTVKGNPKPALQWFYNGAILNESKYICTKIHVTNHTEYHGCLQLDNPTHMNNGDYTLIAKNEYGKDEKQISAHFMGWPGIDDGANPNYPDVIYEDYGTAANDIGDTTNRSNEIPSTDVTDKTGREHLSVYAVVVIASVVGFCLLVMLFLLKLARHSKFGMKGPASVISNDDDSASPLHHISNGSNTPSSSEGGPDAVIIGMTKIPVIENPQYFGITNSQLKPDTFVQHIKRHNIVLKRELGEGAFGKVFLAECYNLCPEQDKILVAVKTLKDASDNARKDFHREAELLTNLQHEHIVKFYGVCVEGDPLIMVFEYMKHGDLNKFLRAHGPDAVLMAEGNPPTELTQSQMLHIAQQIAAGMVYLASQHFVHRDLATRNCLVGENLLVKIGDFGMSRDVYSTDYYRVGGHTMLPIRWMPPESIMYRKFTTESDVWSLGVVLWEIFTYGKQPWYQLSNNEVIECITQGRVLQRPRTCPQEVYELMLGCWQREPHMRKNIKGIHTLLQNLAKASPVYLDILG", "assay": "Kinase Profiler", "type": "biochemical", "experimental": "as §3"}}}
{"smiles": "COc1ccc(OC)c(NS(=O)(=O)c2ccc(NC(=O)CCSc3ccc(C)cc3)cc2)c1", "note": "[Compound A41]", "values": [{"measurement": "hyperactivation of AKT", "setting": "[1]", "result": "reduced"}, {"measurement": "p44/42 activation", "setting": "[2]", "result": "unchanged"}, {"measurement": "% inh.", "setting": "[3]", "result": 14, "unit": "%"}, {"measurement": "% inh.", "setting": "[4]", "result": 31, "unit": "%"}, {"measurement": "% inh.", "setting": "[5]", "result": -12, "unit": "%"}, {"measurement": "Activity(%)", "setting": "[6]", "result": 107, "unit": "%"}, {"measurement": "Activity(%)", "setting": "[7]", "result": 89, "unit": "%"}, {"measurement": "Activity(%)", "setting": "[8]", "result": 116, "unit": "%"}, {"measurement": "Activity(%)", "setting": "[9]", "result": 83, "unit": "%"}, {"measurement": "Activity(%)", "setting": "[10]", "result": 129, "unit": "%"}, {"measurement": "Activity(%)", "setting": "[11]", "result": 105, "unit": "%"}, {"measurement": "Activity(%)", "setting": "[12]", "result": 108, "unit": "%"}, {"measurement": "Activity(%)", "setting": "[13]", "result": 104, "unit": "%"}, {"measurement": "Activity(%)", "setting": "[14]", "result": 101, "unit": "%"}, {"measurement": "Activity(%)", "setting": "[15]", "result": 100, "unit": "%"}, {"measurement": "Activity(%)", "setting": "[16]", "result": 105, "unit": "%"}, {"measurement": "Activity(%)", "setting": "[17]", "result": 108, "unit": "%"}, {"measurement": "Activity(%)", "setting": "[18]", "result": 108, "unit": "%"}]}
